The target of one experiment is PIK3CA (human) (UniProt P42336). Briefly: Assessment of PIK3CA Kinase Activity.
Another experiment concerns the target PIK3CD (Human) (UniProt O00329). Description: Assessment of PIK3CD Kinase Activity.
A further experiment deals with PIK3CG (human) (UniProt P48736). Description: Assessment of PIK3CG Kinase Activity.
The next experiment has as its target PIK3CB (Human) (UniProt P42338). Description: Assessment of PIK3CB Kinase Activity.

Experimental findings from the Kinase Knowledgebase extract (Sharma et al. 2016) are described below.

Where only a bound is given, the exact number is not on record here.

PIK3CD (Human), sequence (O00329 whole entry, looked up): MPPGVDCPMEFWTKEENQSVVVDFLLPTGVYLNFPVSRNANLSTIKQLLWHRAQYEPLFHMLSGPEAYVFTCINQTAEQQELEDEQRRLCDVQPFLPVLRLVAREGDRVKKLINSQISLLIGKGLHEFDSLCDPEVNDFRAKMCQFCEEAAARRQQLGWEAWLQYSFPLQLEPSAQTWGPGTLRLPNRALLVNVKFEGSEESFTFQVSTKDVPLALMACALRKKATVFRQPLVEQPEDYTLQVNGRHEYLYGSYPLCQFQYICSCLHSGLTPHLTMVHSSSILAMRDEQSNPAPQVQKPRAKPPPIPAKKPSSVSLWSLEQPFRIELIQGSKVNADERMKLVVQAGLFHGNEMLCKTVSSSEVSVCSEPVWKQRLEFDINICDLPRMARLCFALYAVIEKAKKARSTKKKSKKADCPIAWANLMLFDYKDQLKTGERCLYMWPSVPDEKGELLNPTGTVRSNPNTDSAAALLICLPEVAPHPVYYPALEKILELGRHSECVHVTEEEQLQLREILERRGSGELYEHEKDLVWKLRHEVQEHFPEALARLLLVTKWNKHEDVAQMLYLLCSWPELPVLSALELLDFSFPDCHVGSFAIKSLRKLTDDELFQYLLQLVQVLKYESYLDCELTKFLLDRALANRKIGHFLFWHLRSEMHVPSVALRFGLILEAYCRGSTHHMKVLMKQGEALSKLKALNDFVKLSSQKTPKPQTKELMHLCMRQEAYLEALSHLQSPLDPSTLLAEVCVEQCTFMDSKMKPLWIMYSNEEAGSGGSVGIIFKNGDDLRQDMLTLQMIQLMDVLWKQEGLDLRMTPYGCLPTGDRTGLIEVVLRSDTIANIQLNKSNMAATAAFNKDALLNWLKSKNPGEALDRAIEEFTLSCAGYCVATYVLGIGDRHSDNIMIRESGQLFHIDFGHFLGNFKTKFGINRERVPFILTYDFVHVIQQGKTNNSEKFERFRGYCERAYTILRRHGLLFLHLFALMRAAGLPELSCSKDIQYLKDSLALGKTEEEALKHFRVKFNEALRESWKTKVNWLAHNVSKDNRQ
PIK3CB (Human), sequence (P42338 whole entry, looked up): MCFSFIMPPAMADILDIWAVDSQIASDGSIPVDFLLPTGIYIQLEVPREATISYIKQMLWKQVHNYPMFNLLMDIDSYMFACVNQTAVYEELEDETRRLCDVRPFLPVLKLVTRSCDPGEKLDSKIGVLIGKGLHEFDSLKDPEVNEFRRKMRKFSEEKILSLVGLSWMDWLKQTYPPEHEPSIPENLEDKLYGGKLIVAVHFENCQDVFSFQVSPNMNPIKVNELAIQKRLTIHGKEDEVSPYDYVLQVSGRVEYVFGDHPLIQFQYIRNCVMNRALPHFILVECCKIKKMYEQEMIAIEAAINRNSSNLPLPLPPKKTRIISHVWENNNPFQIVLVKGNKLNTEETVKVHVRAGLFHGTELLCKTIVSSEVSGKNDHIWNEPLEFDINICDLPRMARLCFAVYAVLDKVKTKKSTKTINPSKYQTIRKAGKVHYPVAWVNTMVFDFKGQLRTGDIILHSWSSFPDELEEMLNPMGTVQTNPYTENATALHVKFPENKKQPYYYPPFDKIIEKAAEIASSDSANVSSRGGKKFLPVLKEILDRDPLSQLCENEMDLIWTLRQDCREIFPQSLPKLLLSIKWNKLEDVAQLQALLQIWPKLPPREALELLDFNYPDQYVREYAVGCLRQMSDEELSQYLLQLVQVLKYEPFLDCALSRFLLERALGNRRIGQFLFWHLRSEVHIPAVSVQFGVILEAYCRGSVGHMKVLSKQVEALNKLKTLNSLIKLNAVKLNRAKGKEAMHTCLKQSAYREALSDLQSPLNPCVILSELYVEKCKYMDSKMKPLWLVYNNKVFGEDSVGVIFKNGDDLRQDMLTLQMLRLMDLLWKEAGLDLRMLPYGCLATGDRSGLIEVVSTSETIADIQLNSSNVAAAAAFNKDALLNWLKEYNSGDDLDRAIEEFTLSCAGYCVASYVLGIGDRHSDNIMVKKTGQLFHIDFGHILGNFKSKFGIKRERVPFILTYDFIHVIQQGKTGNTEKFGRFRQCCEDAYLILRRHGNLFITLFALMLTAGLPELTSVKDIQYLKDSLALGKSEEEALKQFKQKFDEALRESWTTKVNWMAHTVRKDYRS
PIK3CA (human), sequence (P42336 whole entry, looked up): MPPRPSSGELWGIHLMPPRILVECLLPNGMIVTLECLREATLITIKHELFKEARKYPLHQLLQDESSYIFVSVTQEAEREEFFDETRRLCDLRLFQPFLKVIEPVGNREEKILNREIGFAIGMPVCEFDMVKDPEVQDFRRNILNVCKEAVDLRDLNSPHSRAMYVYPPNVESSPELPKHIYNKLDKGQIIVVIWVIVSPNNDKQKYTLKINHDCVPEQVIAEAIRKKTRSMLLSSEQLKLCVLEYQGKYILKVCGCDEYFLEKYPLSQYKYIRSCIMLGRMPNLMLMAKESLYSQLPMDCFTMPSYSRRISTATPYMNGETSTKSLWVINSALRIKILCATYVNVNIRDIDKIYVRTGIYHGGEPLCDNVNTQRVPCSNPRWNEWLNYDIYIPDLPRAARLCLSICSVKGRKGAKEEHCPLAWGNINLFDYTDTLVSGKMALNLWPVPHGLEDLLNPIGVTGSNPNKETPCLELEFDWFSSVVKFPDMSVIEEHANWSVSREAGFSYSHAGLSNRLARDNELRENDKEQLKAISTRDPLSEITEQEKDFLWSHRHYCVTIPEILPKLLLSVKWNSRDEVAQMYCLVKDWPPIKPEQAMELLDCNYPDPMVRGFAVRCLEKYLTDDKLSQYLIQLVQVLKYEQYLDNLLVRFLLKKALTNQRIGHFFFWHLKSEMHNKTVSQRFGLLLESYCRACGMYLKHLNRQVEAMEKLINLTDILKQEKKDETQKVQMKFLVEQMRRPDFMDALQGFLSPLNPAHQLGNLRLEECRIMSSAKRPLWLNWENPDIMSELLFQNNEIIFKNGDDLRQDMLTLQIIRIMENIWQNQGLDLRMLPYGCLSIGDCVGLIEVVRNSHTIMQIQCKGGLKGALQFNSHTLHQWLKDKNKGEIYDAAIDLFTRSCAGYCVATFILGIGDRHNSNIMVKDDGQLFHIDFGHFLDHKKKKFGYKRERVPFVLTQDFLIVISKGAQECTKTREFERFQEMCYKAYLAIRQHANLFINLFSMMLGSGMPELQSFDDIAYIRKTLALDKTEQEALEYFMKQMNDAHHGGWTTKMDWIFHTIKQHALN
PIK3CG (human), sequence (P48736 whole entry, looked up): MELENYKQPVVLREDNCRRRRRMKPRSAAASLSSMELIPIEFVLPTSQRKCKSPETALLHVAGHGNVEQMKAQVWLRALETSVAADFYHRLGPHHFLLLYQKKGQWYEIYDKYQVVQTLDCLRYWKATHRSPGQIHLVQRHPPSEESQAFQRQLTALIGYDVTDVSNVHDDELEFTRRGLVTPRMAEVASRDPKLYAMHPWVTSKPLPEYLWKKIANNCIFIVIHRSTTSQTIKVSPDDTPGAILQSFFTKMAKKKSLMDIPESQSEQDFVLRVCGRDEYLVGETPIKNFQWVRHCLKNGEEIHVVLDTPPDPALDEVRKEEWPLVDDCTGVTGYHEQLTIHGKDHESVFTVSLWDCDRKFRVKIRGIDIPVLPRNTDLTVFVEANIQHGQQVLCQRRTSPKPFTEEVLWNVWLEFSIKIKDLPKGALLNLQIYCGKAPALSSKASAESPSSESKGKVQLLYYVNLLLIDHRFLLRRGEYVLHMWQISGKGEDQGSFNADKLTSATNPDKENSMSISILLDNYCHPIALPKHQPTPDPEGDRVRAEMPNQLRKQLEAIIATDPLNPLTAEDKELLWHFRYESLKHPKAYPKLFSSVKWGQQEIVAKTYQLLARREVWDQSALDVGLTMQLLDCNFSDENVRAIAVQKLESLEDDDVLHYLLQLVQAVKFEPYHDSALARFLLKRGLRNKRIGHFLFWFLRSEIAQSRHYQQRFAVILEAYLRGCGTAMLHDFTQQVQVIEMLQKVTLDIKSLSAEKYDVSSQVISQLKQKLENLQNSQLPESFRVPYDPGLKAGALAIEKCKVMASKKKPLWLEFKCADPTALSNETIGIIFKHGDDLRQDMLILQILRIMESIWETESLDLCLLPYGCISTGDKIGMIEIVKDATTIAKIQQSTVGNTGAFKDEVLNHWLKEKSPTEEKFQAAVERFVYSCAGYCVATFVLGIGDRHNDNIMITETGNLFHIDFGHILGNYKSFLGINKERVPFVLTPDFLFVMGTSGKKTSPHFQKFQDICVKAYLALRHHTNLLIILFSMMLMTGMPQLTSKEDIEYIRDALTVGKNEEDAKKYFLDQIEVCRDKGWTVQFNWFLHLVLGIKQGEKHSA

Usually IC50 stands for the concentration that inhibits the measured activity by half. On to `CN(C(=O)CNC(=O)Nc1nc2ccc(-c3cncc(S(=O)(=O)NC(C)(C)C)c3)cn2n1)C1CC1`, for which the values for the 50% inhibitory concentration (IC50) on PIK3CA (human), on PIK3CD (Human) and against PIK3CG (human) were 100 to 1000 nM, less than 100 nM and less than 100 nM, respectively.
As to `CC(C)(C)NS(=O)(=O)c1cncc(-c2cc(F)c3nc(NC(=O)NCC(=O)N4CCOCC4)nn3c2)c1`, the IC50 on PIK3CD (Human) and against PIK3CG (human) was less than 100 nM throughout.
With `CC(C)(C)NS(=O)(=O)c1cncc(-c2ccc3nc(NC(=O)NCCC(=O)N4CCCC4)nn3c2)c1`, the figures for the 50% inhibitory concentration (IC50) at PIK3CB (Human), against PIK3CD (Human) and at PIK3CG (human) were 100 to 1000 nM, less than 100 nM and less than 100 nM, respectively.
As for `CN(C)[C@H]1CCN(C(=O)CNC(=O)Nc2nc3ccc(-c4cncc(S(=O)(=O)NC(C)(C)C)c4)cn3n2)C1`, the half-inhibitory concentration (IC50) on PIK3CA (human) is 100 to 1000 nM; against PIK3CB (Human), 100 to 1000 nM; at PIK3CD (Human), less than 100 nM; on PIK3CG (human), less than 100 nM.
Consider `CC(C)(C)NS(=O)(=O)c1cncc(-c2cc(F)c3nc(NC(=O)NCC(=O)N4CCCC4)nn3c2)c1`, for which the figures for the IC50 on PIK3CD (Human) and against PIK3CG (human) were 100 to 1000 nM and less than 100 nM, respectively.
As to `CC(C)(C)NS(=O)(=O)c1cncc(-c2ccc3nc(NC(=O)NCC(=O)N4CCCCC4)nn3c2)c1`, the half-inhibitory concentration (IC50) against PIK3CA (human) is 100 to 1000 nM; against PIK3CD (Human), less than 100 nM; against PIK3CG (human) it was less than 100 nM.
As for `CC(C)(C)NS(=O)(=O)c1cncc(-c2ccc3nc(NC(=O)NCC(=O)N4CCOCC4)nn3c2)c1`, the IC50 on PIK3CA (human) was 100 to 1000 nM; at PIK3CB (Human), 100 to 1000 nM; at PIK3CD (Human) it was less than 100 nM; against PIK3CG (human), less than 100 nM.
Consider `CC(C)(C)NS(=O)(=O)c1cncc(-c2ccc3nc(NC(=O)NCC(=O)NC4CCNCC4)nn3c2)c1`, for which the IC50 against PIK3CB (Human) is 100 to 1000 nM; against PIK3CD (Human), 100 to 1000 nM; against PIK3CG (human), less than 100 nM.
Take `CC(C)(C)NS(=O)(=O)c1cncc(-c2ccc3nc(NC(=O)NCC(=O)NC4CC4)nn3c2)c1`: the half-inhibitory concentration (IC50) is 100 to 1000 nM at PIK3CB (Human), 100 to 1000 nM at PIK3CD (Human) and less than 100 nM on PIK3CG (human).
For `O=C(NCC(=O)N1CCCC1)Nc1nc2ccc(-c3cncc(C(F)(F)F)c3)cn2n1`, the IC50 was more than 10000 nM at PIK3CB (Human) and less than 100 nM at PIK3CG (human).
For `CS(=O)(=O)c1cncc(-c2ccc3nc(NC(=O)NCC(=O)N4CCOCC4)nn3c2)c1`, the 50% inhibitory concentration (IC50) on PIK3CD (Human) was 100 to 1000 nM; against PIK3CG (human) it was less than 100 nM.
The matching figures for `CC(C)NS(=O)(=O)c1cncc(-c2ccc3nc(NC(=O)NCC(=O)N4CCCC4)nn3c2)c1`: less than 100 nM and less than 100 nM.
As to `CC(C)NS(=O)(=O)c1cncc(-c2ccc3nc(NC(=O)NCC(=O)N4CCOCC4)nn3c2)c1`, the results for the IC50 at PIK3CA (human), on PIK3CD (Human) and at PIK3CG (human) were 100 to 1000 nM, less than 100 nM and less than 100 nM, respectively.
Take `CC(C)(C)NS(=O)(=O)c1cncc(-c2ccc3nc(NC(=O)NCC(=O)N4CCCC4)nn3c2)c1`: the IC50 on PIK3CD (Human) and against PIK3CG (human) was less than 100 nM each time.
Take `CC(C)(C)NS(=O)(=O)c1cncc(-c2ccc3nc(NC(=O)NCCC(=O)N4CCCCC4)nn3c2)c1`: the IC50 against PIK3CD (Human) and on PIK3CG (human) was less than 100 nM each time.
In the case of `CC(C)(C)NS(=O)(=O)c1cncc(-c2ccc3nc(NC(=O)NCC(=O)N4CCC(N)CC4)nn3c2)c1`, the half-maximal inhibitory concentration (IC50) was 100 to 1000 nM on PIK3CB (Human), less than 100 nM against PIK3CD (Human) and less than 100 nM on PIK3CG (human).
For `COCCN1CCN(C(=O)CNC(=O)Nc2nc3ccc(-c4cncc(S(=O)(=O)NC(C)(C)C)c4)cn3n2)CC1`, the half-inhibitory concentration (IC50) on PIK3CA (human) was 100 to 1000 nM; against PIK3CB (Human), 100 to 1000 nM; against PIK3CD (Human), less than 100 nM; against PIK3CG (human) it was less than 100 nM.
In the case of `CN1CCN(C(=O)CNC(=O)Nc2nc3ccc(-c4cncc(S(=O)(=O)NC(C)(C)C)c4)cn3n2)CC1`, the half-inhibitory concentration (IC50) is 100 to 1000 nM on PIK3CA (human), 100 to 1000 nM on PIK3CB (Human), less than 100 nM on PIK3CD (Human) and less than 100 nM on PIK3CG (human).
